# Source: patent US9790228B2, “Heterocyclic kinase inhibitors” (Intellikine LLC, priority 2008, dated 2017)
# Assays:
# [1] = biological target: p110β/p85α (Homo sapiens, UniProt P42338); assay: PI3K β inhibition assay (TLC lipid kinase or HTRF); assay type: biochemical; settings: read-out: PI3K β IC50
# In short: (§1)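 IC50 from TLC lipid kinase assay (25 mM HEPES pH 7.4, 10 mM MgCl2, 100 μg/ml phosphatidylinositol, 10 or 100 μM γ-32P-ATP, 5 min RT, phosphorimager) at 10–12 two-fold dilutions, or HTRF (10 μM PIP2, 10 μM ATP, 1 h RT) measuring PIP3 by TR-FRET; 2% DMSO final.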
# [2] = biological target: p110γ (Homo sapiens (Human), UniProt P48736); assay: PI3K γ inhibition assay (TLC lipid kinase or HTRF); assay type: biochemical
# In short: as §1
# [3] = biological target: p110δ/p85α (Homo sapiens (Human), UniProt O00329); assay: PI3K δ inhibition assay (TLC lipid kinase or HTRF); assay type: biochemical
# In short: as §1
# [4] = biological target: p110α/p85α (Homo sapiens (Human), UniProt P42336); assay: PI3K α inhibition assay (TLC lipid kinase or HTRF); assay type: biochemical
# In short: as §1
# [5] = tested on: Balb/c splenic B cells; assay: B cell activation and proliferation assay (Alamar Blue); assay type: cell-based, mouse; settings: Mus musculus, B-cell
# Experimental: The ability of one or more subject compounds to inhibit B cell activation and proliferation is determined according to standard procedures known in the art. For example, an in vitro cellular proliferation assay is established that measures the metabolic activity of live cells. The assay is performed in a 96 well microtiter plate using Alamar Blue reduction. Balb/c splenic B cells are purified over a Ficoll-Paque™ PLUS gradient followed by magnetic cell separation using a MACS B cell Isolation Kit (Miletenyi). Cells are plated in 90 ul at 50,000 cells/well in B Cell Media (RPMI+10% FBS+Penn/Strep+50 uM bME+5 mM HEPES). A compound disclosed herein is diluted in B Cell Media and added in a 10 ul volume. Plates are incubated for 30 min at 37 C and 5% CO2 (0.2% DMSO final concentration). A 50 ul B cell stimulation cocktail is then added containing either 10 ug/ml LPS or 5 ug/ml F(ab′)2 Donkey anti-mouse IgM plus 2 ng/ml recombinant mouse IL4 in B Cell Media. Plates are incubated for 72 hours at 37° C. and 5% CO2. A volume of 15 uL of Alamar Blue reagent is added to each well and plates are incubated for 5 hours at 37 C and 5% CO2. Alamar Blue fluoresce is read at 560Ex/590Em, and IC50 or EC50 values are calculated using GraphPad Prism 5.
# Sequence of p110γ (P48736 whole entry): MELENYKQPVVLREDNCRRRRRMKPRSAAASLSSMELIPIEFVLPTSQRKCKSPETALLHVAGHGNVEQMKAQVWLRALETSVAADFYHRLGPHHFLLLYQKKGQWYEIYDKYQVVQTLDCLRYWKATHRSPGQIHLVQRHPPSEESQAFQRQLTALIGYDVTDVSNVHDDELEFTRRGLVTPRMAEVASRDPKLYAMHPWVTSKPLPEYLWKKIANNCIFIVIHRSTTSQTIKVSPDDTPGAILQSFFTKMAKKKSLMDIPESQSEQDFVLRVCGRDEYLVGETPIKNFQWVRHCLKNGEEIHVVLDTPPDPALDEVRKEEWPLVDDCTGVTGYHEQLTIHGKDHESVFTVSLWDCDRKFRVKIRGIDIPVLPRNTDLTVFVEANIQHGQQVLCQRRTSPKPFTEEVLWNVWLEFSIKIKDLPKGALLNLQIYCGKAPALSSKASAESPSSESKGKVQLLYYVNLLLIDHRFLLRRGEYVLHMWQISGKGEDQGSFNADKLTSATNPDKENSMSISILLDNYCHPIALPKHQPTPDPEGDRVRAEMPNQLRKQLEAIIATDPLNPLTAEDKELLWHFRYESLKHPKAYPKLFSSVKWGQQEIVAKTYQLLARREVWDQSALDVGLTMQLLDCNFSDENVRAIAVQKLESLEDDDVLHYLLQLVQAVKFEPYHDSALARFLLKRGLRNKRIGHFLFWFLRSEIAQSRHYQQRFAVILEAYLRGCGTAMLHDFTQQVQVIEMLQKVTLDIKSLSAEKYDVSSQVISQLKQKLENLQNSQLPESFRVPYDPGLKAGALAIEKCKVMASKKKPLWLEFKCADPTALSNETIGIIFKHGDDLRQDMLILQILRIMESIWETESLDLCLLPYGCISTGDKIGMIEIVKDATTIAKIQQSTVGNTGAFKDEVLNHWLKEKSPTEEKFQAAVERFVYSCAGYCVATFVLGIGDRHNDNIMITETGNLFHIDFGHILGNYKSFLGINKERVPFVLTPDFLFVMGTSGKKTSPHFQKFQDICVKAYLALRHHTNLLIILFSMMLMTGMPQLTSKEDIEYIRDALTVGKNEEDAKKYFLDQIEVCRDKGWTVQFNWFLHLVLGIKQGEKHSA
# Sequence of p110β/p85α (P42338 whole entry, looked up): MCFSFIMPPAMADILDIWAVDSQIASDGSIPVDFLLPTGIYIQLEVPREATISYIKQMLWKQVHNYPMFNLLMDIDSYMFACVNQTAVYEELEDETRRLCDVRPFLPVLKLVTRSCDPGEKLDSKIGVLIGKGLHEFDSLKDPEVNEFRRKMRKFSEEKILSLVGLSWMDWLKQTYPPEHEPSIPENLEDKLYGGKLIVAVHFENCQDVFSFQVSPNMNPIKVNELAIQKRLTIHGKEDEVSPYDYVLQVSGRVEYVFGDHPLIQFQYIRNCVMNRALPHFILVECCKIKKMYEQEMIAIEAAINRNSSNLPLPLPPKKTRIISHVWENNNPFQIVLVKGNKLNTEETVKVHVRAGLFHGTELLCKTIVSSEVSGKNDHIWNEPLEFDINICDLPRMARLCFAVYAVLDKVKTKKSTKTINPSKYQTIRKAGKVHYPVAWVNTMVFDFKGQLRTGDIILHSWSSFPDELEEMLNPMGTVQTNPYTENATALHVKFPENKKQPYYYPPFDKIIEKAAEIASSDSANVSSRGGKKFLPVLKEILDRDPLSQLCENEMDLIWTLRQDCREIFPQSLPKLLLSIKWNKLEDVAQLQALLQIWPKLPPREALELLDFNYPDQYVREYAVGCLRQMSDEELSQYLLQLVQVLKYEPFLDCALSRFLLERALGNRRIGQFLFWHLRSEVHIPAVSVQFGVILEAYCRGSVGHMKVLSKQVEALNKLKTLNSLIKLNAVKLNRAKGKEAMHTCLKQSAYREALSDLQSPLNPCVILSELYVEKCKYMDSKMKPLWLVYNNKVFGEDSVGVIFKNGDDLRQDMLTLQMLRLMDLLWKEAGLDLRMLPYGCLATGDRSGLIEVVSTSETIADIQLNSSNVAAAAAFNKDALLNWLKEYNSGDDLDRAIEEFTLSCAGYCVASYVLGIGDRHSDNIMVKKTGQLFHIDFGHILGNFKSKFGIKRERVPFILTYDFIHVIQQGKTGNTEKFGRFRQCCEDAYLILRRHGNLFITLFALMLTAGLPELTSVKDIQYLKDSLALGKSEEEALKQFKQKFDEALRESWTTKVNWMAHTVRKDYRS
# Sequence of p110α/p85α (P42336 whole entry): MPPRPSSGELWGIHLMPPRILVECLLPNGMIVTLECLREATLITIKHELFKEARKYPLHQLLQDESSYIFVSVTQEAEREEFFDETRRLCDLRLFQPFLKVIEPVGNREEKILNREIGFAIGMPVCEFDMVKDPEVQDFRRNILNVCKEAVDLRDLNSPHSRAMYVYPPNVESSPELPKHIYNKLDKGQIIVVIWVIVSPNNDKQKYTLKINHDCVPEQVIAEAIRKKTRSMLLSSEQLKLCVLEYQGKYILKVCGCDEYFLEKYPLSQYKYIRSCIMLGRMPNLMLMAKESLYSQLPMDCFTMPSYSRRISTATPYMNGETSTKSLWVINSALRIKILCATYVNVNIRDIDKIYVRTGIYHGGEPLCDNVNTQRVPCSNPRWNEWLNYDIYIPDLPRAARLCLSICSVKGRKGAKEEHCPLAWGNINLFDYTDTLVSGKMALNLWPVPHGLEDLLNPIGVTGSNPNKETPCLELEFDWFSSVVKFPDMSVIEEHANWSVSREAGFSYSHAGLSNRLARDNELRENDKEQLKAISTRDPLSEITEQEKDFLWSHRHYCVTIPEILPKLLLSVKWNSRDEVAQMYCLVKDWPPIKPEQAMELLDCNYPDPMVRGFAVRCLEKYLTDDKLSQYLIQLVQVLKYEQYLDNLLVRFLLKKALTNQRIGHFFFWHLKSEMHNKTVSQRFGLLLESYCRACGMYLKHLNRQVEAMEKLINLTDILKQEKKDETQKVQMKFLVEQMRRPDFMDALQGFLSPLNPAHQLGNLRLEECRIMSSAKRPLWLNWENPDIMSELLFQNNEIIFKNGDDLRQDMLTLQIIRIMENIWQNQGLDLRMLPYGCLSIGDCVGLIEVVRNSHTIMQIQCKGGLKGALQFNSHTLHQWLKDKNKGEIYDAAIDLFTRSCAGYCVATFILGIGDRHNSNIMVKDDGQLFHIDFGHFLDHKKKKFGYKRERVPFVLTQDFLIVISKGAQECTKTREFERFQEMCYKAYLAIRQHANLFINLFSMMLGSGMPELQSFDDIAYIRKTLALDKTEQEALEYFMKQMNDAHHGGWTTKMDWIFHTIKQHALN
# Sequence of p110α/p85α (P27986 whole entry partner): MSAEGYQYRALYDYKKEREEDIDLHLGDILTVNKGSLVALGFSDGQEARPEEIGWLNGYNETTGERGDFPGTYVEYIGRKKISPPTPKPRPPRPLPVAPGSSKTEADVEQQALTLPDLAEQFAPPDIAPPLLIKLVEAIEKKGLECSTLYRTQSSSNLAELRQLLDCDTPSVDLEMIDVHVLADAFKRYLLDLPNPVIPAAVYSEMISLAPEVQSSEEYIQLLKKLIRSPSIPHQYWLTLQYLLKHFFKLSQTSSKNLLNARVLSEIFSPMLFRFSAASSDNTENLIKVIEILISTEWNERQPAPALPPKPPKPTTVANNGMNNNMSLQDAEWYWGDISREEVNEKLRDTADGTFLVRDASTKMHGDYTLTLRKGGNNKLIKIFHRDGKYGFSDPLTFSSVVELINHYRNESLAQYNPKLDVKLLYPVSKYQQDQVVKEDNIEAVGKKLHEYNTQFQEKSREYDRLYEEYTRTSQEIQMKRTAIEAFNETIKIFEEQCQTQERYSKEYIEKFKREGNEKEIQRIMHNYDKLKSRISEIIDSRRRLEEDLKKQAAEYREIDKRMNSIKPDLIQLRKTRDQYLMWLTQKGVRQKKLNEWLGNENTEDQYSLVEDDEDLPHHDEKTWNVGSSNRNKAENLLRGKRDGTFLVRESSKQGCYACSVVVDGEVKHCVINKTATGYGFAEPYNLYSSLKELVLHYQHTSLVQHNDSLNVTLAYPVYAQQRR
# Sequence of p110δ/p85α (O00329 whole entry): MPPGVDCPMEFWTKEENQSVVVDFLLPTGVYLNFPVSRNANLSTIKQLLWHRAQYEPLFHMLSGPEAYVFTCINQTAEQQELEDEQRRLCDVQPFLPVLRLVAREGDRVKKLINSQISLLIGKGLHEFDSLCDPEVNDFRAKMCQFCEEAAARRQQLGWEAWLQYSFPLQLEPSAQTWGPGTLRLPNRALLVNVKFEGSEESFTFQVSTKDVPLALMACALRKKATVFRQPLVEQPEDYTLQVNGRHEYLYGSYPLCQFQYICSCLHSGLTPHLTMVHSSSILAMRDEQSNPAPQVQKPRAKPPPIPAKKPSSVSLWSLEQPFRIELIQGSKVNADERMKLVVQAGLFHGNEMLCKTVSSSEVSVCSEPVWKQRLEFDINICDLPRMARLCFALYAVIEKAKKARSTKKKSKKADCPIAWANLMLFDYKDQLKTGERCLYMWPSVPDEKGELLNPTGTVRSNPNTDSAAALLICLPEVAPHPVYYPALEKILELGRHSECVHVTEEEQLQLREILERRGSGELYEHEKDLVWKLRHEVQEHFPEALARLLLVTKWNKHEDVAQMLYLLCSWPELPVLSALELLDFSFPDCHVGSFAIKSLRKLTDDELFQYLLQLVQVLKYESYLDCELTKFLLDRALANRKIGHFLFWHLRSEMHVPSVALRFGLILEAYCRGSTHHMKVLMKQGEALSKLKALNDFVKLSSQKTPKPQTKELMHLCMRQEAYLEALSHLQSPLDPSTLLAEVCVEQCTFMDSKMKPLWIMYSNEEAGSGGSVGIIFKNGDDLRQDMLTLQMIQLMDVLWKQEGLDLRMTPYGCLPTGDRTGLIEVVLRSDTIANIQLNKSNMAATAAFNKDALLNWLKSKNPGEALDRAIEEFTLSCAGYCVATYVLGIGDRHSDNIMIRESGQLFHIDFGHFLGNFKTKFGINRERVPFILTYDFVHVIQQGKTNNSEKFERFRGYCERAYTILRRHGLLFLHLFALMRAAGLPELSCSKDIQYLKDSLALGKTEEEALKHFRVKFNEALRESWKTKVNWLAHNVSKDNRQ
# Sequence of p110δ/p85α (P27986 whole entry partner): as the sequence (P27986 whole entry partner) above
Compound,IC50 [1] [nM],IC50 [2] [nM],IC50 [3] [nM],IC50 [4] [nM],EC50 [5] [nM]
Nc1nc2ccc(-c3nn(Cc4cc5ccccc5nc4CCN4CCCC4)c4ncnc(N)c34)cc2s1 [Compound 167],100 to 1000,< 100,< 100,< 100,< 100
Cc1ccccc1-c1nc2ccccc2cc1Cn1nc(-c2ccc3nc(N)ccc3c2)c2c(N)ncnc21 [Compound 131],> 1000,< 100,< 100,100 to 1000,100 to 1000
Nc1nc2ccc(-c3nn(Cc4cc5ccccc5nc4-c4ccccc4)c4ncnc(N)c34)cc2s1 [Compound 94],> 1000,< 100,< 100,> 1000,100 to 1000
Nc1ncnc2c1c(-c1cc(O)cc(F)c1)nn2Cc1cc2c(nc1-c1ccccc1F)CCC2 [Compound 101],> 1000,> 1000,100 to 1000,> 1000,100 to 1000
CCC(c1cc2ccccc2nc1N1CCCC1)n1nc(-c2cccc(O)c2)c2c(N)ncnc21 (centres unmarked) [Compound 39],> 1000,> 1000,< 100,> 1000,< 100
CC(=O)Nc1nc2ccc(-c3nn(Cc4cc5ccccc5nc4OC(C)C)c4ncnc(N)c34)cc2s1 [Compound 157],> 1000,> 1000,100 to 1000,> 1000,> 1000
Nc1ncc(-c2nn(Cc3cc4ccccc4nc3-c3ccccc3F)c3nccc(N)c23)cn1 [Compound 158],> 1000,> 1000,> 1000,> 1000,> 1000
CN1CCN(c2nc3ccccc3cc2Cn2nc(-c3cc(O)cc(F)c3)c3c(N)ncnc32)CC1 [Compound 50],< 100,> 1000,< 100,> 1000,< 100
CC(C)N1CCN(c2nc3ccccc3cc2Cn2nc(-c3cc(O)cc(F)c3)c3c(N)ncnc32)CC1 [Compound 69],> 1000,> 1000,< 100,> 1000,< 100
CC(=O)Nc1nc2ccc(-c3nn(Cc4cc5ccccc5nc4N4CCCC4)c4ncnc(N)c34)cc2s1 [Compound 195],> 1000,< 100,< 100,< 100,< 100
CC(C)c1ccccc1-c1nc2ccccc2cc1Cn1nc(-c2cc(O)cc(F)c2)c2c(N)ncnc21 [Compound 17],100 to 1000,< 100,< 100,100 to 1000,< 100
Nc1nc2cc(-c3nn(Cc4cc5ccccc5nc4-c4ccccc4)c4ncnc(N)c34)ccc2o1 [Compound 145],> 1000,< 100,< 100,> 1000,< 100
CN1CCN(c2nc3ccccc3cc2Cn2nc(-c3cnc4[nH]ccc4c3)c3c(N)ncnc32)CC1 [Compound 74],100 to 1000,> 1000,< 100,> 1000,< 100
CC(C)Oc1nc2ccccc2cc1Cn1nc(-c2ccc3nc(N)sc3c2)c2c(N)ncnc21 [Compound 159],> 1000,< 100,< 100,100 to 1000,> 1000
CN1CCN(c2nc3ccccc3cc2Cn2nc(-c3cccc(O)c3)c3c(N)ncnc32)CC1 [Compound 43],100 to 1000,> 1000,< 100,> 1000,100 to 1000
Cc1ccncc1-c1nc2ccccc2cc1Cn1nc(-c2cc(O)cc(F)c2)c2c(N)ncnc21 [Compound 56],> 1000,< 100,< 100,> 1000,< 100
CC(=O)Nc1nc2ccc(-c3nn(Cc4cc5ccccc5nc4-c4ccccc4C)c4ncnc(N)c34)cc2s1 [Compound 84],> 1000,< 100,< 100,> 1000,< 100
Nc1nc2cc(-c3nn(Cc4cc5ccccc5nc4N4CCOCC4)c4ncnc(N)c34)ccc2o1 [Compound 141],> 1000,< 100,< 100,100 to 1000,< 100
CC(C)N(C)c1nc2ccccc2cc1Cn1nc(-c2cc(O)cc(F)c2)c2c(N)ncnc21 [Compound 52],100 to 1000,100 to 1000,< 100,100 to 1000,< 100

Compound,IC50 [1] [nM],IC50 [2] [nM],IC50 [3] [nM],IC50 [4] [nM],EC50 [5] [nM]
Nc1ncnc2c1c(-c1cnn(CCO)c1)nn2Cc1cc2ccccc2nc1-c1ccccc1 [Compound 179],> 1000,> 1000,100 to 1000,> 1000,100 to 1000
Nc1ncc2cc(-c3nn(Cc4cc5ccccc5nc4N4CCOCC4)c4ncnc(N)c34)ccc2n1 [Compound 139],< 100,< 100,< 100,< 100,< 100
CC(C)N(C)c1nc2ccccc2cc1Cn1nc(-c2ccc3nc(N)[nH]c3c2)c2c(N)ncnc21 [Compound 184],> 1000,< 100,< 100,> 1000,100 to 1000
Cc1ccccc1-c1nc2ccccc2cc1Cn1nc(-c2ccc3nc(N)ncc3c2)c2c(N)ncnc21 [Compound 132],100 to 1000,< 100,< 100,< 100,< 100
CC(c1cc2ccccc2nc1-c1ccccc1)n1nc(C#C[C@@H](C)O)c2c(N)ncnc21 (some centres unmarked) [Compound 71],> 1000,> 1000,< 100,> 1000,100 to 1000
CC(c1cc2ccccc2nc1N1CCN(C)CC1)n1nc(-c2cccc(O)c2)c2c(N)ncnc21 (centres unmarked) [Compound 72],100 to 1000,> 1000,< 100,> 1000,< 100
CC(=O)Nc1nc2ccc(-c3nn(Cc4cc5ccccc5nc4N4CCN(C)CC4)c4ncnc(N)c34)cc2[nH]1 [Compound 185],100 to 1000,> 1000,< 100,> 1000,< 100
Cc1cccc2cc(Cn3nc(I)c4c(N)ncnc43)c(N3CCCC3)nc12 [Compound 6],> 1000,> 1000,< 100,> 1000,100 to 1000
Cc1ccccc1-c1nc2ccccc2cc1Cn1nc(I)c2c(N)ncnc21 [Compound 3],> 1000,100 to 1000,< 100,> 1000,100 to 1000
CCN(CC)c1nc2ccccc2cc1Cn1nc(-c2cc(O)cc(F)c2)c2c(N)ncnc21 [Compound 68],100 to 1000,100 to 1000,< 100,> 1000,< 100
Cc1ccncc1-c1nc2ccccc2cc1Cn1nc(-c2cccc(O)c2)c2c(N)ncnc21 [Compound 78],> 1000,> 1000,< 100,> 1000,100 to 1000
Cc1ccccc1-c1nc2ccccc2cc1Cn1nc(-c2ccc3oc(N)nc3c2)c2c(N)ncnc21 [Compound 133],> 1000,< 100,< 100,> 1000,100 to 1000
Cc1ccccc1-c1nc2ccccc2cc1Cn1nc(-c2cccc(O)c2)c2c(N)ncnc21 [Compound 5],> 1000,100 to 1000,< 100,> 1000,100 to 1000
CC(=O)Nc1nc2ccc(-c3nn(Cc4cc5ccccc5nc4-c4ccccc4F)c4ncnc(N)c34)cc2s1 [Compound 83],> 1000,< 100,< 100,> 1000,< 100
CN1CCN(c2nc3ccccc3cc2Cn2nc(-c3ccc4cc(N)sc4c3)c3c(N)ccnc32)CC1 [Compound 80],< 100,< 100,< 100,< 100,< 100
Nc1ncnc2c1c(-c1cccc(O)c1)nn2Cc1cc2ccccc2nc1N1CCOCC1 [Compound 64],> 1000,100 to 1000,< 100,> 1000,< 100
CC(=O)Nc1nc2ccc(-c3nn(Cc4cc5ccccc5nc4CCN4CCN(C)CC4)c4ncnc(N)c34)cc2s1 [Compound 169],100 to 1000,100 to 1000,< 100,100 to 1000,< 100
CCN1CCN(c2nc3ccccc3cc2Cn2nc(-c3cc(O)cc(F)c3)c3c(N)ncnc32)CC1 [Compound 38],< 100,> 1000,< 100,> 1000,< 100
